Reference: patent publication US20180148390A1, “METHOD AND COMPOSITION FOR RETAINING NUTRIENTS IN SOIL AT PLANTING SITES” (WaterScience, Inc., priority 2016, published 2018)
≈ marks a conversion by molar mass, not a printed value. Each block holds one compound with its values, some of them ahead of it.

Tests used:
physchem = settings: for solubility: 25 °C, pH 7, water
Text: High solubility of naturally occurring positively charged amino acids are subject to runoff, which may be problematic. However, positively charged amino acids are better retained than negatively charged nitrate, sulfate, and phosphate which are poorly retained in the negatively charged soils.

[1] = Electro-potential of amino acid in deionized water against a hydrogen electrode; type: physicochemical; settings: amino acid in 100 ml deionized water, electro-potential meter against hydrogen electrode
Description: After drying, 890.9 mg of the modified alanine (i.e., protonated alanine) was added to 100 ml of deionized water to form a modified alanine solution. The electro-potential of the modified alanine water mixture was measured with an electro-potential meter against a hydrogen electrode. […] 890.9 mg sample of unmodified alanine was added to 100 ml of deionized water.
890.9 mg sample of unmodified glutamic acid was added to 100 ml of deionized water.
After drying, 1902 mg of the modified leucine was added to 100 ml of deionized water to form a modified leucine solution. The electro-potential of the modified leucine water mixture was measured with an electro-potential meter against a Hydrogen electrode. […] 1312 mg sample of unmodified leucine was added to 100 ml of deionized water.

[2] = Column retention of amino acid on WS A201; type: physicochemical; settings: for amount complexed and retained by the WS A 201 / amount passed through the column: 100 ml solution on 89 ml WS A201 column at 1.5 ml/min, displaced with 100 ml deionized water; for converted to cationic charge: from WS A201 column retention
Description: The modified alanine solution was added to 100 ml burette with 9 mm diameter at the rate of 1.5 ml/min. The column was filled with 89 ml of WS A201 (WaterScience, Inc., Peoria, Ill.) which has an anion exchange capacity of 2 EG Kg. To the burette was added 100 ml deionized water to displace the modified alanine. […] The 100 ml of deionized water containing 890.9 mg of unmodified alanine was added to another column containing fresh WS A 201. To the burette was also added 100 ml of deionized water to displace the unmodified alanine solution from the column.
The column was filled with 89 ml of WS A 201 which has an anion exchange capacity of 2 EG Kg. […] The 100 ml of deionized water containing 1471 mg of unmodified glutamic acid was added to another column containing fresh WS A 201. To the burette column was also added 100 ml of deionized water to displace the unmodified glutamic acid solution from the column.
The 1% modified leucine acid solution was added to 100 ml burette with 9 mm diameter at the rate of 1.5 ml/min. The column was filled with 89 ml of WS A 201 which has an anion exchange capacity of 2 EG Kg. To the burette was added 100 ml deionized water to displace the modified leucine. […] The 100 ml of deionized water containing 1312 mg of unmodified leucine was added to another column containing fresh WS A 201. To the burette was also added 100 ml of deionized water to displace the unmodified leucine solution from the column.

SMILES: NCCCC[C@H](N)C(=O)O [lysine]
solubility (physchem): 1000 mg/mL (≈ 6840 mM)
reduction of solubility by modification with a weak base to pH 10 (physchem; pH 10): 89%

SMILES: N[C@@H](CCC(=O)O)C(=O)O [unmodified glutamic acid, glutamic acid, reference compound]
amount complexed and retained by the WS A 201 [2]: 79 mg
amount passed through the column [2]: 1392 mg

SMILES: CC(C)C[C@H](N)C(=O)O [unmodified leucine, leucine, reference compound]
amount complexed and retained by the WS A 201 [2]: 41 mg
amount passed through the column [2]: 1271 mg

The next lines start with the values.

solubility (physchem): 41.9 mg/mL (≈ 270 mM)
SMILES: N[C@@H](Cc1c[nH]cn1)C(=O)O [histidine]

electro-potential [1]: 177 mV
amount complexed and retained by the WS A 201 [2]: 845.8 mg
amount passed through the column [2]: 45.1 mg
converted to cationic charge [2]: 94.9%
SMILES: C[C@H](N)C(=O)O [modified alanine, Protonated alanine]

electro-potential [1]: 197 mV
amount complexed and retained by the WS A 201 [2]: 1246 mg
amount passed through the column [2]: 66 mg
converted to cationic charge [2]: 95%
SMILES: CC(CNC(=N)N)C[C@H](N)C(=O)O (some centres unmarked) [modified leucine, Guanidine modified leucine]

amount complexed and retained by the WS A 201 [2]: 37.3 mg
amount passed through the column [2]: 853.6 mg
SMILES: C[C@H](N)C(=O)O [unmodified alanine, alanine, reference compound]
